The values below come from patent US10995363B2, “Nucleotide analogs” (ABBOTT MOLECULAR INC., priority 2013, dated 2021).

Experiment [1] concerns the target T1, Therminator II DNA polymerase (Thermococcus sp., UniProt Q56366, A485L/D141A/E143A/Y409V).
T1 construct: purchased New England BioLabs
The experiment can be described thus: Polymerase extension assay: incorporation of 3′-O-propargyl-dNTP at the 3′ end of a primer on KRAS template. In kind it is biochemical, Thermococcus sp. 9∘N. Particulars: 2 mM MnCl2, KRAS template, 35 cycles, size analysis by gel electrophoresis. The method, then:
During the development of embodiments of the technology provided herein, experiments were conducted to assess the incorporation of 3′-O-propargyl-dNTPs into a nucleic acid by a polymerase. In particular, experiments were conducted to evaluate the accurate incorporation of 3′-O-propargyl-dNTPs into a nucleic acid and to evaluate the terminating activity of the 3′-O-propargyl-dNTPs. To assess these characteristics of the nucleotide analogs provided herein, polymerase extension assays were conducted using a template nucleic acid having a sequence from human KRAS (e.g., KRAS exon 2 and flanking intron sequences) and a complementary primer (Table 2).
To test incorporation of a 3′-O-propargyl-dTTP into a nucleic acid, a polymerase extension reaction mix was assembled comprising 20 mM Tris-HCl, 10 mM (NH4)SO4, 10 mM KCl, 2 mM MnCl2, 0.1% Triton X-100, 200 μmol 3′-O-propargyl-dTTP, 6.25 μmol of primer R_ke2_trP1_T_bio (SEQ ID NO: 2), and 2 units of Therminator II DNA polymerase (New England BioLabs) in a 25-μl final reaction volume. A volume of 0.5 μmol of the KRAS template (SEQ ID NO: 1) was used as template (Table 2). The polymerase extension reaction was performed using a temperature cycling profile comprising exposing the reaction to a temperature of 95° C. for 2 minutes followed by 35 cycles of 95° C. for 15 seconds, 55° C. for 25 seconds, and 65° C. for 35 seconds.
(§1) After the polymerase extension reaction, 1 μl of the reaction mix was used directly for nucleic acid size analysis by gel electrophoresis (e.g., using an Agilent 2100 Bioanalyzer and High Sensitivity DNA Assay Chip).
Additional polymerase extension experiments were performed using the reaction conditions described above and replacing the 3′-O-propargyl-dTTP and the primer R_ke2_trP1_T_bio with 3′-O-propargyl-dATP and the primer R_ke2_trP1_A bio (SEQ ID NO: 3); 3′-O-propargyl-dCTP and the primer R_ke2_trP1_C bio (SEQ ID NO: 5); and 3′-O-propargyl dGTP and the primer R_ke2_trP1_G bio (SEQ ID NO: 4).

Experiment [2] deals with T1, Therminator II DNA polymerase. In words: Ladder fragment generation with natural dNTPs and one 3′-O-propargyl-dNTP. It counts as biochemical, Thermococcus sp. 9∘N. The following applies: natural dNTPs plus one 3′-O-propargyl-dNTP, KRAS template, 50 cycles. The method, then: During the development of embodiments of the technology provided herein, experiments were conducted to assess using the nucleotide analogs of the present technology to generate nucleic acid fragments that terminate at base-specific positions. In particular, reaction mixtures were produced and tested that included both natural dNTPs and each of the 3′-O-propargyl-dNTPs individually.
To test the fragment generation by 3′-O-propargyl-dTTP, a DNA fragment generation reaction mix was prepared comprising 20 mM Tris-HCl, 10 mM (NH4)SO4, 10 mM KCl, 2 mM MnCl2, 0.1% Triton X-100, 1000 μmol dATP, 1000 μmol dCTP, 1000 μmol dGTP, 1000 μmol dTTP, 200 μmol 3′-O-propargyl-dTTP, 6.25 μmol of primer R_ke2_trP1_T_bio (SEQ ID NO: 2), and 2 units of THERMINATOR II DNA polymerase (New England BioLabs) in a 25-μl final reaction volume. A volume of 0.5 μmol of the KRAS template (SEQ ID NO: 1) was used as template. The polymerase extension reaction was performed using a temperature cycling profile comprising exposing the reaction to a temperature of 95° C. for 2 minutes followed by 50 cycles of 95° C. for 15 seconds, 55° C. for 25 seconds, and 65° C. for 35 seconds.
as §1
Additional polymerase extension experiments were performed using the reaction conditions described above and replacing the 3′-O-propargyl-dTTP with 3′-O-propargyl-dATP, 3′-O-propargyl-dCTP, or 3′-O-propargyl dGTP.

A further experiment has as its system 3′-O-propargyl-dNTP. The experiment can be described thus: Polymerase screening by nucleotide extension assay (incorporation of 3′-O-propargyl-dNTP as substrate). Also noted: key: a minus (“−”) indicates that the polymerase did not produce a detectable product incorporating the 3′-O-propargyl dNTP; a single plus (“+”) indicates that the polymerase produced a detectable product incorporating the 3′-O-propargyl dNTP; three plusses (“+++”) indicates that the polymerase produced a substantial amount of 3′-O-propargyl dNTP incorporation product. It counts as biochemical. An excerpt:
For example, in some exemplary assays and/or embodiments, compatible polymerases are identified by a polymerase extension reaction (e.g., a single base extension reaction). See, e.g., Ausebel et al. (eds.), Current Protocols in Molecular Biology. New York: John Wiley & Sons, Inc; Sambrook et al. (1989). Molecular Cloning: A Laboratory Manual. (2nd ed.). Cold Spring Harbor: Cold Spring Harbor Laboratory Press.
For example, identifying compatible polymerases comprises providing a polymerase to test and a reaction buffer appropriate for the polymerase. For polymerases obtained from a commercial supplier (e.g., New England BioLabs, United States Biologicals, Promega, Invitrogen, Worthington, Sigma-Aldrich, Fluka, Finnzymes, Roche, 5 Prime, Qiagen, KAPA Biosystems, Thermo Scientific, Agilent, Life Technologies, etc.), the polymerase is often supplied with an appropriate reaction buffer. An exemplary reaction buffer comprises, e.g., a compatible buffer (e.g., 20 mM Tris-HCl), a salt (e.g., 10 mM KCl), a source of magnesium or manganese (e.g., 2 mM MgSO4; 2 mM MnCl2, etc.), a detergent (e.g., 0.1% TRITON X-100) and has a suitable pH (e.g., approximately pH 8.8 at approximately 25° C.). The activities of some polymerases are improved in the presence of other compounds, such as sulfate and other salts (e.g., 10 mM (NH4)2SO4). Reaction mixtures for polymerase extension reactions are typically tested using Mg^2+ or Mn^2+ as the enzyme cofactor.
Polymerases are tested by providing in the reaction mixture a DNA template, a DNA primer that is complementary to the DNA template, and one or more nucleotides and/or nucleotide analogs. Typical concentrations of template and primer are approximately from 1 to 100 nM and typical concentrations of nucleotides and/or nucleotide analogs are approximately from 1 to 125 μM (e.g., 1 to 125 μM for each nucleotide and/or nucleotide analog and/or 1 to 500 μM total concentration of all nucleotides and/or nucleotide analogs). Templates and primers are synthesized by methods known in the art (e.g., using solid supports and phosphoramidite chemistry) and are available from several commercial suppliers (e.g., Integrated DNA Technologies, Coralville, Iowa).
A pre-annealed primer/template is typically produced for testing polymerases. For example, the primer is typically resuspended in a suitable buffer (e.g., Tris-EDTA, pH 8.0) at a suitable concentration, e.g., at 1 to 500 μM (e.g., at 100 μM) and the template is typically resuspended in a suitable buffer (e.g., Tris-EDTA, pH 8.0) at a suitable concentration, e.g., at 1 to 500 μM (e.g., at 100 μM). […] For example, a pre-annealed primer/template is produced by mixing approximately 100 μl of the approximately 1 to 500 μM (e.g., at 100 μM) primer solution to approximately 100 μl of the approximately 1 to 500 μM (e.g., at 100 μM) template solution in approximately 800 μl of an annealing buffer (e.g., 200 mM Tris, 100 mM potassium chloride, and 0.1 mM EDTA, pH 8.45) to provide a milliliter of primer/template solution. One of skill in the art can scale the volumes and concentrations as appropriate for the concentrations and volumes that are appropriate for the particular analysis. Then, an aliquot (e.g., 100 μl) of the primer/template solution is heated to denature intramolecular and/or intermolecular secondary structures (e.g., by heating at approximately 85° C. to 97° C. (e.g., at approximately 95° C.), e.g., for 1 to 5 minutes (e.g., 2 minutes). Next, the aliquot is cooled to an annealing temperature (e.g., 20° C. to 60° C. (e.g., 25° C.) and incubated for 1 to 10 minutes (e.g., for approximately 5 minutes) to allow the primer and template to anneal to form a primer/template. The primer/template can be diluted in an appropriate substrate dilution buffer (e.g., 20 mM Tris, 10 mM potassium chloride, and 0.01 mM EDTA, pH 8.45; e.g., a 1 to 10 dilution of the annealing buffer described above) for storage. […]

T1 sequence (Q56366 whole entry D141A/E143A/Y409V/A485L): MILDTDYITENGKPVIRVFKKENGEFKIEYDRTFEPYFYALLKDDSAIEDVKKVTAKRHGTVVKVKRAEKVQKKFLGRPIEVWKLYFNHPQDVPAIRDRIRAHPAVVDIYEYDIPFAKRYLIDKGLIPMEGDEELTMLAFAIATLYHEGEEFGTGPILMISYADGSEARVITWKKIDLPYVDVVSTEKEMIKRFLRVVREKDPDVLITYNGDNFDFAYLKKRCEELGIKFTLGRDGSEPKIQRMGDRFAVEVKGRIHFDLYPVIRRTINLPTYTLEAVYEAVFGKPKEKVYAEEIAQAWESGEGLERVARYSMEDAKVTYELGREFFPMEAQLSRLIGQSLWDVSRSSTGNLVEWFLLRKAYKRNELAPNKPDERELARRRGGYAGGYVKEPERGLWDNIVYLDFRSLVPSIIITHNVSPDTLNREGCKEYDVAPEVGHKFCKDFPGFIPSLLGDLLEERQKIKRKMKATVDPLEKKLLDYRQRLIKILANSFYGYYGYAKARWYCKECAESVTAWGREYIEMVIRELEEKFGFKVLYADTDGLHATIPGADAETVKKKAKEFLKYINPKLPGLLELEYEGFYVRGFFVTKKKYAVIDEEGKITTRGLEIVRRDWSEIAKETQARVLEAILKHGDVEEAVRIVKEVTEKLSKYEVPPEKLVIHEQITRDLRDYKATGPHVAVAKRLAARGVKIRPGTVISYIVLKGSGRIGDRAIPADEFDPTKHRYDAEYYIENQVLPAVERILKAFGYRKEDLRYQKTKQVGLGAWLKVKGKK

Take `C#CCO[C@H]1C[C@H](n2ccc(N)nc2=O)O[C@@H]1COP(=O)(O)OP(=O)(O)OP(=O)(O)O` [3′-O-propargyl-dCTP, 3′-O-propargyl-2′-deoxycytidine-5′-triphosphate]: the “incorporation at the 3′ end of the primer” value in experiment [1] is “successful incorporation”. In addition, in experiment [2], the “generation of nucleic acid fragments terminated at base-specific positions” value is reported as “generated populations of nucleic acid fragments having a range of sizes corresponding to the expected lengths”.
On the same counts, the results for `C#CCO[C@H]1C[C@H](n2cnc3c(N)ncnc32)O[C@@H]1COP(=O)(O)OP(=O)(O)OP(=O)(O)O` [3′-O-propargyl-dATP, 3′-O-propargyl-2′-deoxyadenosine-5′-triphosphate] are “successful incorporation” and “generated populations of nucleic acid fragments having a range of sizes corresponding to the expected lengths”.
On to “Amplitaq Gold: polymerase enzyme sold under the trade name Ampli-Taq (Life Technologies)”, for which the “product incorporating the 3′-O-propargyl dNTP” value in the experiment on 3′-O-propargyl-dNTP (co-factor Mg^2+) and with 3′-O-propargyl-dNTP (co-factor Mn^2+) was “−” in each case.

B1: 9° N: 9∘N DNA Polymerase (NEB) (protein, UniProt Q56366 1-775, looked up)
DNA polymerase: MILDTDYITENGKPVIRVFKKENGEFKIEYDRTFEPYFYALLKDDSAIEDVKKVTAKRHGTVVKVKRAEKVQKKFLGRPIEVWKLYFNHPQDVPAIRDRIRAHPAVVDIYEYDIPFAKRYLIDKGLIPMEGDEELTMLAFDIETLYHEGEEFGTGPILMISYADGSEARVITWKKIDLPYVDVVSTEKEMIKRFLRVVREKDPDVLITYNGDNFDFAYLKKRCEELGIKFTLGRDGSEPKIQRMGDRFAVEVKGRIHFDLYPVIRRTINLPTYTLEAVYEAVFGKPKEKVYAEEIAQAWESGEGLERVARYSMEDAKVTYELGREFFPMEAQLSRLIGQSLWDVSRSSTGNLVEWFLLRKAYKRNELAPNKPDERELARRRGGYAGGYVKEPERGLWDNIVYLDFRSLYPSIIITHNVSPDTLNREGCKEYDVAPEVGHKFCKDFPGFIPSLLGDLLEERQKIKRKMKATVDPLEKKLLDYRQRAIKILANSFYGYYGYAKARWYCKECAESVTAWGREYIEMVIRELEEKFGFKVLYADTDGLHATIPGADAETVKKKAKEFLKYINPKLPGLLELEYEGFYVRGFFVTKKKYAVIDEEGKITTRGLEIVRRDWSEIAKETQARVLEAILKHGDVEEAVRIVKEVTEKLSKYEVPPEKLVIHEQITRDLRDYKATGPHVAVAKRLAARGVKIRPGTVISYIVLKGSGRIGDRAIPADEFDPTKHRYDAEYYIENQVLPAVERILKAFGYRKEDLRYQKTKQVGLGAWLKVKGKK
Turning to B1, the “product incorporating the 3′-O-propargyl dNTP” value is “−” in the experiment on 3′-O-propargyl-dNTP (co-factor Mg^2+) and “+” in the experiment with 3′-O-propargyl-dNTP (co-factor Mn^2+).

B2: rTth: rTth DNA polymerase (protein, UniProt P52028 1-834, looked up)
DNA polymerase I, thermostable: MEAMLPLFEPKGRVLLVDGHHLAYRTFFALKGLTTSRGEPVQAVYGFAKSLLKALKEDGYKAVFVVFDAKAPSFRHEAYEAYKAGRAPTPEDFPRQLALIKELVDLLGFTRLEVPGYEADDVLATLAKKAEKEGYEVRILTADRDLYQLVSDRVAVLHPEGHLITPEWLWEKYGLRPEQWVDFRALVGDPSDNLPGVKGIGEKTALKLLKEWGSLENLLKNLDRVKPENVREKIKAHLEDLRLSLELSRVRTDLPLEVDLAQGREPDREGLRAFLERLEFGSLLHEFGLLEAPAPLEEAPWPPPEGAFVGFVLSRPEPMWAELKALAACRDGRVHRAADPLAGLKDLKEVRGLLAKDLAVLASREGLDLVPGDDPMLLAYLLDPSNTTPEGVARRYGGEWTEDAAHRALLSERLHRNLLKRLEGEEKLLWLYHEVEKPLSRVLAHMEATGVRLDVAYLQALSLELAEEIRRLEEEVFRLAGHPFNLNSRDQLERVLFDELRLPALGKTQKTGKRSTSAAVLEALREAHPIVEKILQHRELTKLKNTYVDPLPSLVHPRTGRLHTRFNQTATATGRLSSSDPNLQNIPVRTPLGQRIRRAFVAEAGWALVALDYSQIELRVLAHLSGDENLIRVFQEGKDIHTQTASWMFGVPPEAVDPLMRRAAKTVNFGVLYGMSAHRLSQELAIPYEEAVAFIERYFQSFPKVRAWIEKTLEEGRKRGYVETLFGRRRYVPDLNARVKSVREAAERMAFNMPVQGTAADLMKLAMVKLFPRLREMGARMLLQVHDELLLEAPQARAEEVAALAKEAMEKAYPLAVPLEVEVGMGEDWLSAKG
Consider B2, for which the “product incorporating the 3′-O-propargyl dNTP” value in the experiment with 3′-O-propargyl-dNTP (co-factor Mg^2+) and in the experiment on 3′-O-propargyl-dNTP (co-factor Mn^2+) was “−” each time.
